Assay results taken from patent US7420056B2, “Substituted bicyclic imidazo-3-ylamine compounds” (Gruenenthal GmbH, priority 2004, dated 2008).
Where two headings read alike, the source gives them in different places.

What was measured:
[1] = target: mGluR5 receptor (Sus scrofa, UniProt I3LUI7); experiment: Affinity for the mGluR5 receptor: inhibition of 3[H]-MPEP binding in pig brain homogenate; settings: 3[H]-MPEP binding
Summary of the method: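 Pig brain membranes (450 μg protein; hemispheres without medulla, cerebellum and pons) in 30 mM Hepes pH 8.0 were incubated 60 min at room temperature with 5 nM [3H]-MPEP and compound at 10 μM. Bound radioactivity was filtered and counted. Nonspecific binding was defined with 10 μM MPEP.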

[2] = tested on: Rat; experiment: Formaldehyde test (rat), phase 2; type: in vivo
[3] = tested on: Mouse; experiment: Formaldehyde test in mice; type: in vivo
[4] = tested on: neuropathic pain in rats (cold allodynia); experiment: Neuropathic pain in rats, Bennett model (chronic constriction injury), cold allodynia; type: in vivo; settings: rat, p.o., in words
Description: 2. Neuropathic Pain in Rats Efficacy against neuropathic pain was investigated in the Bennett model (chronic constriction injury; Bennett and Xie, 1988, Pain 33: 87-107). The corresponding parts of the literature are hereby deemed to be part of the present disclosure. Sprague-Dawley rats weighing 140-160 g are provided under Nembutal anaesthesia with four loose ligatures of the right ischial nerve. On the paw innervated by the damaged nerve, the animals develop hypersensitivity which, after one week's convalescence, is quantified over a period of approx. four weeks by means of a cold metal plate at 4° C. (cold allodynia). The animals are observed on this plate for a period of 2 min. and the number of withdrawal responses by the damaged paw is measured. […] The significance of an antiallodynic action is determined with reference to the AUC values by means of a paired T-test (*0.05≧p>0.01; **0.01≧p>0.001; ***p≦0.001; Armitage and Berry, 1987, Stat. Methods in Medical Research, London: Blackwell Scientific Publications).

[5] = tested on: male Sprague-Dawley rats; experiment: Elevated plus maze (EPM) model, anxiolytic effect; type: in vivo; settings: rat, 60 min after p.o. administration, in words
Protocol: 3. “Elevated Plus Maze” Model
Compounds are tested for a possible anxiolytic effect in the “elevated plus maze” (EPM) model. The tests are carried out on male Sprague-Dawley rats (200-250 g) using 2 “elevated plus mazes” (Med Associates) with electronically controlled infrared photobeams for determining the location of the animals in the maze. Each maze has 2 open and 2 closed arms and a central platform. The edges of the open arms are delimited by narrow strips. The entire maze is mounted on a metal stand.
At the beginning of a 5 minute test, each animal is individually placed on the central platform with its head in the direction of a closed arm.
The following parameters are determined or calculated and evaluated:
the number and percentage of entries into the open and closed arms,
and the percentage of time spent in the open and closed arms and on the central platform.
The data are analysed by means of single factor ANOVA (comparison of treatment groups vs. vehicle group). The significance level is set at p<0.05. All groups have a size of N=10.
The test is also described in Hogg, S. (1996) A review of the validity and variability of the elevated plus-maze as an animal model of anxiety. Pharmacol. Biochem. Behav. 54, 21-30 and Rodgers, R. J., Cole, J. C. (1994) The elevated plus-maze: pharmacology, methodology and ethology, in: Cooper, S. J., Hendrie, C. […]

[6] = ip, read-out: ED50 value, Rat i.p.
[7] = po, read-out: ED50 value, Rat p.o.
[8] = ip, read-out: ED50 value, Mouse i.p.

Chain of mGluR5 receptor (I3LUI7 19-1212): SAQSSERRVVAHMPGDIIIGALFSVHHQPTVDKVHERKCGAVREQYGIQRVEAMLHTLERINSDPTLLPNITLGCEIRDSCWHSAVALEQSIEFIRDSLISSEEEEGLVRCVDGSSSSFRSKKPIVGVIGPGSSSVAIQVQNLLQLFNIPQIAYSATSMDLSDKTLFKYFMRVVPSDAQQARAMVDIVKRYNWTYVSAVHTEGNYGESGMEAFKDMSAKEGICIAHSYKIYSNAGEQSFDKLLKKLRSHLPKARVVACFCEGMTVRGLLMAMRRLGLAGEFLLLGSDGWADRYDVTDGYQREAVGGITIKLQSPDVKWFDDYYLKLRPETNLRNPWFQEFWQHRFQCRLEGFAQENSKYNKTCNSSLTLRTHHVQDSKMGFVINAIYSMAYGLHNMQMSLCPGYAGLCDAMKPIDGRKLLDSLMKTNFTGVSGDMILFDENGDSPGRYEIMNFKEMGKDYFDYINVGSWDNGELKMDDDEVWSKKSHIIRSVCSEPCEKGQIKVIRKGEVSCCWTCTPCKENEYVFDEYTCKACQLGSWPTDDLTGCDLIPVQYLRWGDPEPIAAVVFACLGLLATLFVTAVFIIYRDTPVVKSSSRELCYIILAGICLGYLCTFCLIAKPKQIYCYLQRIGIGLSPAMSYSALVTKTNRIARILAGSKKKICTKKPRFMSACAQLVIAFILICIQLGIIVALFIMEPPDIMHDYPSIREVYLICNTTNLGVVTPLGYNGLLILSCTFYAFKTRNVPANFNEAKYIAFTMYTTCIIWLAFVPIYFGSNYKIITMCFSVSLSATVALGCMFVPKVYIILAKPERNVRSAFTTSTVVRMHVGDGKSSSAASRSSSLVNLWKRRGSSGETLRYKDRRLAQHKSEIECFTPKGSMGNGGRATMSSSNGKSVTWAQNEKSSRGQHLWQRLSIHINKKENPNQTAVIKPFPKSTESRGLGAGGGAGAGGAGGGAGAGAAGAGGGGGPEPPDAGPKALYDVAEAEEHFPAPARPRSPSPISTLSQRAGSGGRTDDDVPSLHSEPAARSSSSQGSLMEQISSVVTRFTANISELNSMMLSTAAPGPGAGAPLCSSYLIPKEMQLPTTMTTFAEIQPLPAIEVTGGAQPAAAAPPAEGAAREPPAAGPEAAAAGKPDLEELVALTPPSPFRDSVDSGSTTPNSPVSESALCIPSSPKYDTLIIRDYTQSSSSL

| IC50 [1] [nM] | SMILES | ED50 [2, 6] [mg/kg] | ED50 [2, 7] [mg/kg] | ED50 [3, 8] [mg/kg] | ED50 ([3]; po, read-out: ED50 value, Mouse p.o.) [mg/kg] | % inhibition, Rat p.o. ([2]; p.o., at 21.5 mg/kg) [% at 21.5] | antiallodynic action [4] | anxiolytic effect [5] |
| --- | --- | --- | --- | --- | --- | --- | --- | --- |
| 5.4 | CC(C)(C)Nc1c(-c2ccc(C#Cc3ccccn3)s2)nc2cnccn12.Cl [Example 91, N-tert-butyl-2-(5-(pyridin-2-ylethynyl)thiophen-2-yl)imidazo[1,2-a]pyrazin-3-amine hydrochloride] | 4.7 | 7.3 | 1.2 | 2.3 | – | – | – |
| 49 | CC(C)(C)Nc1c(-c2ccc(C#Cc3cccs3)s2)nc2cnccn12.Cl [Example 110, N-tert-butyl-2-(5-(thiophen-2-ylethynyl)thiophen-2-yl)imidazo[1,2-a]pyrazin-3-amine hydrochloride] | – | – | – | – | 61 | – | – |
| 76 | CC(C)(C)Nc1c(-c2ccc(C#Cc3ccccn3)cc2)nc2cnccn12 [Example 116, N-tert-butyl-2-(4-(pyridin-2-ylethynyl)phenyl)imidazo[1,2-a]pyrazin-3-amine] | – | – | 15.2 | – | – | – | – |
| 8.4 | CC(C)(C)Nc1c(-c2ccc(C#Cc3ccncc3)s2)nc2cnccn12.Cl [Example 127, N-tert-butyl-2-(5-(pyridin-4-ylethynyl)thiophen-2-yl)imidazo[1,2-a]pyrazin-3-amine hydrochloride] | 2.2 | 5.9 | 7.7 | – | – | – | – |
| – | CC(C)(C)Nc1c(-c2ccc(C#Cc3ccccn3)s2)nc2ccccn12.Cl [Example 192, N-tert-butyl-2-(5-(pyridin-2-ylethynyl)thiophen-2-yl)imidazo[1,2-a]pyridin-3-amine hydrochloride] | – | – | – | – | – | pronounced, long-lasting antiallodynic action | dose-dependent anxiolytic effect |
